Reference: patent US20240384268A1, “Oligonucleotides” (Hudson Institute of Medical Research, priority 2021, published 2024)
In the oligonucleotide strings, read from the 5' end, every base follows the letter of its sugar. An asterisk marks phosphorothioate; unmarked linkages are phosphodiester. Other units and linkages are bracketed, terminal groups are in braces. A string of capitals states the bases alone. d = 2'-deoxy (DNA); m = 2'-O-methyl

The substances below were run against T1, cGAS (Homo sapiens, UniProt Q8N884) (assay: ISD70-driven IP-10 production in HT-29 cells, ELISA). Conditions: 187.5 nM ASO overnight, ISD70 24 h.
T1 sequence (Q8N884 whole entry): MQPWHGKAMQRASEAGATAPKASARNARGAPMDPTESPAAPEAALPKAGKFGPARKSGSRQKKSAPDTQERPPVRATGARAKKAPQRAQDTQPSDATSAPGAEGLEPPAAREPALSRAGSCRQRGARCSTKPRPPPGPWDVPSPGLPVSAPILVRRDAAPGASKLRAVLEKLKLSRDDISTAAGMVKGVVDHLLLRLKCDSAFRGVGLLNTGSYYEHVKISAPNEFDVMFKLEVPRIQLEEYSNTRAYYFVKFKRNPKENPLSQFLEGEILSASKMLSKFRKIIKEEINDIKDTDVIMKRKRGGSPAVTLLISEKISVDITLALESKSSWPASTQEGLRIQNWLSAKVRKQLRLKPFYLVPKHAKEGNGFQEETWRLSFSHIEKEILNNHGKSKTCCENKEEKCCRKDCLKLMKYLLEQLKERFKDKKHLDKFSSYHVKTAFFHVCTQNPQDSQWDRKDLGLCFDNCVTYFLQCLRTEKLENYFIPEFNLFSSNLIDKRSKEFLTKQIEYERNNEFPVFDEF
Assay type: cell-based
Set-up: endogenous in cells

Substance | inhibition of ISD70-dependent IP-10 production (in words)
mG*mC*mA*mG*mU*C*T*C*C*A*T*G*T*C*C*mC*mA*mG*mG*mC (GCAGUCTCCATGTCCCAGGC; antisense; sugars from the 5' end m5 d10 m5, all phosphorothioate, methylation of C not given here) [[CDKN2B-AS1]2234] | robustly inhibited ISD70-dependent IP-10 production

These substances were tested against T1, cGAS (assay: ISD70-driven IP-10 production in MG-63 cells). Conditions: indicated concentrations up to 500 nM, ~30 min, ISD overnight (FIG. 24).
Assay type: cell-based
Set-up: endogenous in cells

Substance | IP-10 after ISD in MG-63, MOE and LNA ASOs (in words)
CGCTTTTCTGTCTGGT (antisense; LNA-modified, pattern not given here) [CTNN2B-311 LNA KL] | did not inhibit IP-10 production

These substances were tested against T1, cGAS (assay: ISD70-driven IP-10 (and IFN-β) production in THP-1 cells, ELISA). Conditions: ASO 100 nM; relative to ISD70 only, given as fraction.
Assay type: cell-based
Set-up: endogenous in cells; host or cells: THP-1 (undifferentiated)

Substance | cGAS 100 nM (averaged IP-10 level relative to ISD70 condition)
CGCTTTTCTGTCTGGT (antisense; LNA-modified, pattern not given here) [CTNN2B-311 LNA KL] | 0.475
TGACAAAGATTCACTG (antisense; LNA-modified, pattern not given here) [HPRT LNA-1353 KL] | 0.887
TGACTGTCTTGAGGGT (antisense; LNA-modified, pattern not given here) [MB21D1-1483 LNA KL] | 0.747
TGGTCCACAACCCCTT (antisense; LNA-modified, pattern not given here) [MB21D1-697 LNA V1] | 0.935
TGGTGGCCACCCATCT (antisense; LNA-modified, pattern not given here) [CTNN2B-2479 LNA V1] | 0.830
TGTCCTTGCACGTGGC (antisense; LNA-modified, pattern not given here) [EGFR-1016 LNA V1] | 0.678
TGTCTGGAAGCTTCCT (antisense; LNA-modified, pattern not given here) [CTNN2B-808 LNA V1] | 0.617
TTCAGGCGCTGCCTTG (antisense; LNA-modified, pattern not given here) [CAMSAP1-2709 LNA V1] | 0.709

Same assay, conditions: THP-1; 100 nM ASO overnight, then ISD70 2.5 μg/ml 7-8 h; percentage of ISD70 only

Substance | cGAS-100 nM: averaged IP-10 levels relative to ISD70 [%]
mA*mA*mA*mG*mC*A*G*T*C*T*C*C*A*T*G*mU*mC*mC*mC*mA (mA*mA*mA*mG*mC*dA*dG*dT*dC*dT*dC*dC*dA*dT*dG*mU*mC*mC*mC*mA; antisense) [[CDKN2B-AS1]2237] | 70.95
mA*mA*mG*mC*mA*G*T*C*T*C*C*A*T*G*T*mC*mC*mC*mA*mG (mA*mA*mG*mC*mA*dG*dT*dC*dT*dC*dC*dA*dT*dG*dT*mC*mC*mC*mA*mG; antisense) [[CDKN2B-AS1]2236] | 107.34
mA*mG*mC*mA*mG*T*C*T*C*C*A*T*G*T*C*mC*mC*mA*mG*mG (AGCAGTCTCCATGTCCCAGG; antisense; sugars from the 5' end m5 d10 m5, all phosphorothioate, methylation of C not given here) [[CDKN2B-AS1]2235] | 28.75
mA*mG*mU*mC*mU*C*C*A*T*G*T*C*C*C*A*mG*mG*mC*mC*mU (mA*mG*mU*mC*mU*dC*dC*dA*dT*dG*dT*dC*dC*dC*dA*mG*mG*mC*mC*mU; antisense) [[CDKN2B-AS1]2232] | 88.13
mA*mG*mU*mG*mG*C*A*C*A*T*A*C*C*A*C*mA*mC*mC*mC*mU (AGUGGCACATACCACACCCU; antisense; sugars from the 5' end m5 d10 m5, all phosphorothioate, methylation of C not given here) [[CDKN2B-AS1]495] | 59.69
mA*mU*mU*mU*mC*C*A*C*A*T*G*C*C*C*A*mG*mU*mG*mU*mU (AUUUCCACATGCCCAGUGUU; antisense; sugars from the 5' end m5 d10 m5, all phosphorothioate, methylation of C not given here) [[CDKN2B-AS1]626] | 52.58
mC*mA*mG*mU*mC*T*C*C*A*T*G*T*C*C*C*mA*mG*mG*mC*mC (mC*mA*mG*mU*mC*dT*dC*dC*dA*dT*dG*dT*dC*dC*dC*mA*mG*mG*mC*mC; antisense) [[CDKN2B-AS1]2233] | 75.92
mC*mA*mG*mU*mG*T*T*T*T*T*A*A*T*T*T*mU*mG*mU*mA*mG (mC*mA*mG*mU*mG*dT*dT*dT*dT*dT*dA*dA*dT*dT*dT*mU*mG*mU*mA*mG; antisense) [[CDKN2B-AS1]613] | 60.94
mC*mU*mU*mG*mU*G*A*A*A*A*G*A*T*T*A*mU*mC*mU*mU*mC (mC*mU*mU*mG*mU*dG*dA*dA*dA*dA*dG*dA*dT*dT*dA*mU*mC*mU*mU*mC) [[CDKN2B-AS1]2139] | 33.75
mG*mC*mA*mG*mU*C*T*C*C*A*T*G*T*C*C*mC*mA*mG*mG*mC (GCAGUCTCCATGTCCCAGGC; antisense; sugars from the 5' end m5 d10 m5, all phosphorothioate, methylation of C not given here) [[CDKN2B-AS1]2234] | 10.02
mG*mU*mC*mU*mC*C*A*T*G*T*C*C*C*A*G*mG*mC*mC*mU*mC (mG*mU*mC*mU*mC*dC*dA*dT*dG*dT*dC*dC*dC*dA*dG*mG*mC*mC*mU*mC) [[CDKN2B;AS1]2231] | 84.16
mG*mU*mG*mU*mC*C*T*T*C*A*T*G*C*T*T*mU*mG*mG*mA*mU (GUGUCCTTCATGCTTUGGAU; antisense; sugars from the 5' end m5 d10 m5, all phosphorothioate, methylation of C not given here) [[CDKN2B-AS1]1415] | 58.18
mG*mU*mG*mU*mU*T*T*T*A*A*T*T*T*T*G*mU*mA*mG*mA*mG (mG*mU*mG*mU*mU*dT*dT*dT*dA*dA*dT*dT*dT*dT*dG*mU*mA*mG*mA*mG) [[CDKN2B-AS1]611] | 66.24
mU*mA*mU*mU*mU*C*C*A*C*A*T*G*C*C*C*mA*mG*mU*mG*mU (mU*mA*mU*mU*mU*dC*dC*dA*dC*dA*dT*dG*dC*dC*dC*mA*mG*mU*mG*mU; antisense) [[CDKN2B-AS1]627] | 80.99

Same assay, conditions: THP-1; 300 nM LNA or 200 nM MOE ASO ~30 min; ISD70 overnight (FIG. 21, 23)

Substance | inhibition of cGAS in THP-1, LNA and MOE ASO validation (in words)
CGCTTTTCTGTCTGGT (antisense; LNA-modified, pattern not given here) [CTNN2B-311 LNA KL] | potently inhibited signalling

Same assay, conditions: THP-1; 2′OMe or PS oligos, 100-250 nM, pre-treatment as in figure legends; ISD70 2.5 μg/ml

Substance | inhibition of ISD70-driven IP-10 production (in words)
mG*mC*mA*mG*mU*C*T*C*C*A*T*G*T*C*C*mC*mA*mG*mG*mC (GCAGUCTCCATGTCCCAGGC; antisense; sugars from the 5' end m5 d10 m5, all phosphorothioate, methylation of C not given here) [[CDKN2B-AS1]2234] | robustly inhibited ISD70-dependent IP-10 production
